Experimental data as given in US20240083851A1 (priority 2020, published 2024).

Key:
[1] = tested on: ovariectomized (OVX) mice; assay: Ovariectomized (OVX) mice model of osteoporosis, femur bone parameters; type: in vivo; conditions: daily for 10 weeks; for BMD: femur
Excerpt: (§1) An ability of LAD to treat osteoporosis was confirmed in an animal model of ovariectomized (OVX) mice commonly used as an animal model of osteoporosis.
(§2) As the positive control, parathyroid hormone (PTH)-based Forteo (Eli Lilly) used as an osteoporosis therapeutic agent through an osteogenesis-promoting mechanism, and alendronate-based Fosamax (Merck) serving as a bone resorption inhibitor, were subcutaneously administered. As the negative control, water (H2O) was orally administered, and LAD was orally administered at a concentration of 5 or 30 mg/kg (FIG. 8A). After the drug was administered daily for 10 weeks, the bone mineral density (BMD) was measured.

[2] = tested on: MSCs; assay: Osteoblast differentiation of MSCs with LAD plus kinase inhibitor (Alizarin Red); type: cell-based, human; conditions: LAD 1 μM combined with inhibitor (1 μM) of ERK, P38 or Akt, 3 weeks, compared to LAD alone
Protocol: To further study the mechanism by which LAD differentiates MSCs into osteoblasts, an experiment was performed using a kinase inhibitor.
After MSCs were cultured, the MSCs were simultaneously treated with a kinase inhibitor (1 μM) and LAD (1 μM). Next day, the medium was exchanged, and the MSCs were simultaneously treated again with the kinase inhibitor and LAD. This procedure was repeated for 3 weeks, and the MSCs were than stained with Alizarin Red.

[3] = tested on: osteocalcin; assay: Change in expression of osteocalcin in MSCs (antibody staining, fluorescence microscope); type: cell-based, human; conditions: 0.001 μM, within 7 days, level similar to OIM-treated group
Protocol: Osteocalcin is expressed only in osteoblasts (Lee et al., Cell 2007), and is used as a useful biomarker for osteogenesis (Bharadwaj et al., Osteoporosis International., 2009).
An experiment was performed in the same manner as described in Experimental Example 1-2, and MSCs were then stained with an osteocalcin antibody, and observed using a fluorescence microscope.

[4] = tested on: BMP-2; assay: Change in expression of BMP2 in MSCs (antibody staining, fluorescence microscope); type: cell-based, human; conditions: 0.001 μM (1 nM), once a day for 7 and 14 days, increased with concentration up to 0.1 μM
Excerpt: (§3) Runt-related transcription factor 2 (RUNX2; core-binding factor alpha, Cbfa1) is the most important transcriptional regulatory factor for osteogenesis, and is known to be involved in osteoblast differentiation, matrix generation, and mineralization during the osteogenesis (Bruderer M, et al., Eur Cell Mater. 2014). Also, RUNX2 itself may be regulated by a bone morphogenetic protein (BMP), which is a type of cytokine (Sun J, et al., Mol Med Rep. 2015). Accordingly, it was confirmed whether LAD promotes the expression of an osteogenesis-related specific factor to induce osteogenesis.
(§4) MSCs were seeded in a 24-well plate at a concentration of 3×10^4 cells/well, and cultured for 24 hours. From the next day, the MSCs were treated with different concentrations (0.001 μM, 0.01 μM, and 0.1 μM) of LAD once a day for 7 days and 14 days. After the experiment was completed, the MSCs were stained with RUNX2 and BMP-2 antibodies, and observed using a fluorescence microscope.

[5] = tested on: RUNX2; assay: Change in expression of RUNX2 in MSCs (antibody staining, fluorescence microscope); type: cell-based, human; conditions: 0.001 μM (1 nM), once a day for 7 and 14 days, increased with concentration up to 0.1 μM
Excerpt: as §3, §4

[6] = tested on: phosphorylated ERK (pERK); assay: ERK phosphorylation in MSCs after LAD treatment; type: cell-based, human
Protocol: Accordingly, the level of phosphorylated ERK according to time elapsed after MSCs were treated with LAD was determined.
Also, to determine whether LAD induces the ERK phosphorylation for a long period, MSCs were treated with various concentrations (0.001, 0.01, and 0.1 μM) of LAD, and the level of phosphorylated ERK (pERK) was checked after 7 days and 14 days. […] In particular, it was confirmed that the level of phosphorylated ERK (pERK) increased to a level similar to that of the positive control (OIM) even at a low concentration.

[7] = tested on: RUNX2; assay: RUNX2 expression in femurs of ovariectomized mice; type: in vivo; conditions: LAD oral, daily for 10 weeks
Excerpt: as §1, §2
In Table 1, BMD represents bone mineral density, TV represents total volume, BV represents bone volume, Tb.Th represents trabecular thickness, and Tb.N represents trabecular number.

[8] = tested on: phosphorylated forms of 43 kinases (ERK, Akt, WNK1); assay: Phosphokinase antibody array in MSCs; type: cell-based, human; conditions: LAD 1 μM, 24 hours, compared to control DMSO
Protocol: To study a mechanism by which LAD differentiates MSCs into osteoblasts, related signaling was investigated.
MSCs cultured in an experimental DMEM culture medium were treated with LAD (1 μM) or the control compound (DMSO), and cultured for 24 hours. The cells were recovered, and an experiment was then performed according to a method specified in a phosphokinase antibody array kit (R&D Systems) containing antibodies that specifically recognize phosphorylated forms of 43 kinases. Then, samples were analyzed using an ImageJ (NIH, USA) program.

[9] = tested on: RUNX2; assay: Effect of ERK inhibitor on increase in RUNX2 expression by LAD in MSCs; type: cell-based, human
Protocol: ERK may induce the phosphorylation of RUNX2 to increase transcriptional activity and may be involved in stability to increase an amount of RUNX2 protein (Greenblatt et al., MB, Annu Rev Cell Dev Biol. 2013). Therefore, an increase in ERK phosphorylation by LAD may induce RUNX2 expression so that LAD can be involved in the differentiation of MSCs into osteoblasts. To verify this, an expression level of RUNX2 was determined after MSCs were treated with a combination of LAD (0.1 μM) and the ERK inhibitor PD98059 (50 μM).

[10] = OVX mice, positive control subcutaneous

CC[C@H](C)[C@H](NC(=O)[C@H](CCC(=O)O)NC(=O)[C@H](CO)NC(=O)[C@@H](NC(=O)[C@@H](N)CO)C(C)C)C(=O)N[C@@H](CCC(N)=O)C(=O)N[C@@H](CC(C)C)C(=O)N[C@@H](CCSC)C(=O)N[C@@H](Cc1cnc[nH]1)C(=O)N[C@@H](CC(N)=O)C(=O)N[C@@H](CC(C)C)C(=O)NCC(=O)N[C@@H](CCCCN)C(=O)N[C@@H](Cc1cnc[nH]1)C(=O)N[C@@H](CC(C)C)C(=O)N[C@@H](CC(N)=O)C(=O)N[C@@H](CO)C(=O)N[C@@H](CCSC)C(=O)N[C@@H](CCC(=O)O)C(=O)N[C@@H](CCCN=C(N)N)C(=O)N[C@H](C(=O)N[C@@H](CCC(=O)O)C(=O)N[C@@H](Cc1c[nH]c2ccccc12)C(=O)N[C@@H](CC(C)C)C(=O)N[C@@H](CCCN=C(N)N)C(=O)N[C@@H](CCCCN)C(=O)N[C@@H](CCCCN)C(=O)N[C@@H](CC(C)C)C(=O)N[C@@H](CCC(N)=O)C(=O)N[C@@H](CC(=O)O)C(=O)N[C@H](C(=O)N[C@@H](Cc1cnc[nH]1)C(=O)N[C@@H](CC(N)=O)C(=O)N[C@@H](Cc1ccccc1)C(=O)O)C(C)C)C(C)C [Forteo, reference compound]
BV [1, 10]: 0.8791 mm^3 | BV/TV [1, 10]: 5.735% | TV [1, 10]: 15.43 mm^3 | Tb. N [1, 10]: 0.8018 mm | Tb. Th [1, 10]: 0.07112 1/mm | BMD [1, 10]: 0.2013 g/mL

NCCCC(O)(P(=O)(O)O)P(=O)(O)O [Fosamax, reference compound]
BV [1, 10]: 1.017 mm^3 | BV/TV [1, 10]: 6.521% | TV [1, 10]: 15.51 mm^3 | Tb. N [1, 10]: 0.9286 mm | Tb. Th [1, 10]: 0.06994 1/mm | BMD [1, 10]: 0.2145 g/mL

CCN1C[C@]2(OC(=O)c3ccccc3NC(C)=O)CC[C@H](OC)C34C1C(C[C@@H]32)C(=O)C[C@H](OC)[C@H]1C[C@@H]4C(=O)[C@H]1OC [LAD, (3S,6S,7S,9S,11S,16S)-1-ethyl-6,9,11-trimethoxy-8,13-dioxododecahydro-2H-3,6a,14-(epiethane[1,1,2]triyl)-7,10-methanocyclodeca[b]azocin-3(4H)-yl 2-acetaminobenzoate]
osteoblast differentiation ability of LAD (Alizarin Red) [2]: inhibited | expression of osteocalcin [3]: strongly induced | expression of BMP-2 [4]: strongly induced | expression of RUNX2 [5]: strongly induced | level of phosphorylated ERK (pERK) ([6]; MSCs, 0.001, 0.01 and 0.1 μM LAD, after 7 days and 14 days, similar to OIM even at low concentration): significantly increased | level of phosphorylated ERK (pERK) ([6]; MSCs, 24 hours after LAD treatment): increased | level of phosphorylated ERK (pERK) ([6]; MSCs, within 30 minutes after LAD treatment): significantly increased | expression of RUNX2 in femurs [7]: significantly increased | phosphorylation of signaling molecules such as ERK, Akt, WNK1 [8]: strongly increased | expression of RUNX2 ([9]; LAD 0.1 μM alone, within 12 hours (same at 24 hours)): significantly increased | BV ([1]; OVX mice, LAD 5 mg/kg oral): 1.009 mm^3 | BV/TV ([1]; OVX mice, LAD 5 mg/kg oral): 6.422% | TV ([1]; OVX mice, LAD 5 mg/kg oral): 15.6 mm^3 | Tb. N ([1]; OVX mice, LAD 5 mg/kg oral): 0.8775 mm | Tb. Th ([1]; OVX mice, LAD 5 mg/kg oral): 0.205 1/mm | BMD ([1]; OVX mice, LAD 5 mg/kg oral): 0.2066 g/mL | BV ([1]; OVX mice, LAD 30 mg/kg oral): 1.17 mm^3 | BV/TV ([1]; OVX mice, LAD 30 mg/kg oral): 7.036% | TV ([1]; OVX mice, LAD 30 mg/kg oral): 16.58 mm^3 | Tb. N ([1]; OVX mice, LAD 30 mg/kg oral): 0.9485 mm | Tb. Th ([1]; OVX mice, LAD 30 mg/kg oral): 0.0739 1/mm | BMD ([1]; OVX mice, LAD 30 mg/kg oral): 0.2168 g/mL | bone mineral density compared to the negative control ([1]; OVX mice, LAD 5 or 30 mg/kg oral, versus water): significantly increased | effect on bone mineral density compared with Forteo ([1]; OVX mice, LAD oral versus Forteo subcutaneous): significantly superior to that of Forteo | osteogenesis in the femurs (tissue staining) ([1]; ovariectomized mice, LAD oral): induced osteogenesis

COc1cccc(-c2cc(=O)c3ccccc3o2)c1N [PD98059, reference compound]
expression of RUNX2 ([9]; combination of LAD 0.1 μM and PD98059 50 μM, 12 hours (same at 24 hours)): significantly decreased
